Data taken from ChEMBL document CHEMBL1201862, “PubChem BioAssay data set” (2004).
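The compound was tested at five concentrations on cells cultured in 96-well plates, with a 48-hour exposure period. The concentration for 50% growth inhibition is given as GI50.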 Active and inactive are the calls of the source. Cut-off read from the data, not from the text of the source: active = GI50 up to about 1.1 µM and inactive = higher.

Assays:
Assay in all cases: NCI anticancer screen, dose series, 48 h
NCI-H460 = tested on: NCI-H460
SN12C = tested on: SN12C
SF-295 = tested on: SF-295
UACC-62 = tested on: UACC-62
HT-29 = tested on: HT-29
NCI-H226 = tested on: NCI-H226
EKVX = tested on: EKVX
UO-31 = tested on: UO-31
KM-20L2 = tested on: KM-20L2
DMS-273 = tested on: DMS-273
HCC 2998 = tested on: HCC 2998
OVCAR-5 = tested on: OVCAR-5
HCT-116 = tested on: HCT-116
SK-OV-3 = tested on: SK-OV-3
786-0 = tested on: 786-0
M14 = tested on: M14
HOP-92 = tested on: HOP-92
MDA-MB-231 = tested on: MDA-MB-231
DU-145 = tested on: DU-145

Measured: GI50

CC1=C(C(=O)Nc2ccccc2C)C(c2ccc(N(C)C)cc2)C(C(=O)Nc2ccccc2C)=C(C)N1
inactive: NCI-H460 63.8 µM | SN12C 83.6 µM | SF-295 > 100 µM | UACC-62 44.3 µM | HT-29 > 100 µM | NCI-H226 > 100 µM | EKVX > 100 µM | UO-31 55.2 µM | KM-20L2 > 100 µM | DMS-273 64.9 µM | HCC 2998 34.5 µM | OVCAR-5 > 100 µM | HCT-116 55.3 µM | SK-OV-3 > 100 µM | 786-0 72.3 µM

c1cnn(CN(Cn2cccn2)Cn2cccn2)c1
inactive: M14 > 100 µM | NCI-H460 > 100 µM | SN12C > 100 µM | HOP-92 > 100 µM | SF-295 > 100 µM | UACC-62 35.9 µM | EKVX > 100 µM | UO-31 > 100 µM | KM-20L2 > 100 µM | DMS-273 > 100 µM | HCT-116 > 100 µM | SK-OV-3 > 100 µM | 786-0 > 100 µM

COc1cccc(N(CN2C(=O)CCC2C(=O)O)C(C)=O)c1 (centres undefined)
inactive: M14 > 100 µM | NCI-H460 > 100 µM | SN12C > 100 µM | HOP-92 > 100 µM | SF-295 > 100 µM | UACC-62 > 100 µM | HT-29 > 100 µM | NCI-H226 > 100 µM | MDA-MB-231 > 100 µM | EKVX > 100 µM | UO-31 > 100 µM | HCC 2998 > 100 µM | OVCAR-5 > 100 µM | HCT-116 > 100 µM | DU-145 > 100 µM | SK-OV-3 > 100 µM | 786-0 > 100 µM

OC(CN1CCCCC1)c1ccc(/C=C/c2ccc(Cl)cc2)cc1 (centres undefined)
inactive: M14 19.9 µM | NCI-H460 54.6 µM | SN12C > 100 µM | HOP-92 50.6 µM | SF-295 40.7 µM | UACC-62 24.3 µM | HT-29 12 µM | NCI-H226 > 100 µM | MDA-MB-231 > 100 µM | EKVX > 100 µM | UO-31 50.4 µM | HCC 2998 46 µM | OVCAR-5 31.8 µM | HCT-116 38.9 µM | DU-145 > 100 µM | SK-OV-3 > 100 µM | 786-0 56.5 µM

COc1ccc2[nH]c3cc4c(=O)c5cc(OC)ccc5[nH]c4cc3c(=O)c2c1
inactive: M14 > 100 µM | NCI-H460 > 100 µM | SN12C > 100 µM | HOP-92 > 100 µM | SF-295 > 100 µM | UACC-62 > 100 µM | HT-29 > 100 µM | NCI-H226 > 100 µM | MDA-MB-231 > 100 µM | EKVX > 100 µM | UO-31 97.5 µM | HCC 2998 > 100 µM | OVCAR-5 > 100 µM | HCT-116 > 100 µM | DU-145 > 100 µM | SK-OV-3 > 100 µM | 786-0 99.1 µM

COc1ccc(Cc2c(-c3ccc(C)cc3)n[nH]c(=O)c2C2C(=O)N(c3ccccc3)N=C2c2ccccc2)cc1 (centres undefined)
inactive: M14 26.9 µM | NCI-H460 30.5 µM | SN12C 30.9 µM | HOP-92 28 µM | SF-295 24.3 µM | UACC-62 20 µM | HT-29 31.7 µM | NCI-H226 29.4 µM | MDA-MB-231 35.6 µM | EKVX 26.8 µM | UO-31 39.7 µM | HCC 2998 27.6 µM | OVCAR-5 33 µM | HCT-116 21.8 µM | DU-145 43.7 µM | SK-OV-3 52.8 µM | 786-0 35.7 µM

COc1ccc2c3c([nH]c2c1[N+](=O)[O-])C(C)N(C(=O)/C=C/c1ccccc1)CC3 (centres undefined)
inactive: M14 5.92 µM | NCI-H460 2.96 µM | SN12C 41.2 µM | SF-295 2.42 µM | UACC-62 2.07 µM | HT-29 3.89 µM | NCI-H226 10.9 µM | EKVX 16.6 µM | UO-31 28 µM | KM-20L2 4.18 µM | DMS-273 1.57 µM | HCC 2998 21.5 µM | OVCAR-5 > 100 µM | 786-0 12.7 µM

OC1(c2ccccc2)CC2CCC(C1)N2CCc1ccccc1 (centres undefined)
inactive: M14 35.6 µM | NCI-H460 58.9 µM | SN12C > 100 µM | HOP-92 43.8 µM | SF-295 34.6 µM | UACC-62 80.4 µM | HT-29 23.8 µM | NCI-H226 61 µM | MDA-MB-231 73.6 µM | EKVX 97.5 µM | UO-31 28.1 µM | HCC 2998 58.3 µM | OVCAR-5 26.1 µM | HCT-116 40.3 µM | DU-145 48.4 µM | SK-OV-3 > 100 µM | 786-0 > 100 µM

COC(=O)C1=CC(=O)OC1(OO)c1ccc(Br)cc1 (centres undefined)
inactive: M14 > 100 µM | NCI-H460 > 100 µM | SN12C > 100 µM | HOP-92 > 100 µM | SF-295 > 100 µM | UACC-62 > 100 µM | HT-29 57.4 µM | NCI-H226 > 100 µM | MDA-MB-231 > 100 µM | EKVX > 100 µM | UO-31 > 100 µM | HCC 2998 > 100 µM | OVCAR-5 > 100 µM | HCT-116 47.1 µM | DU-145 > 100 µM | SK-OV-3 > 100 µM | 786-0 65.2 µM
